{"source": "patent US20240109917A1", "about": "(ACTELION PHARMACEUTICALS LTD, priority 2020, published 2024)", "key": {"[1]": {"molecular_target": "Tb-labeled inactive PDGFRβ (Homo sapiens (Human), UniProt P09619)", "sequence (P09619 33-1106)": "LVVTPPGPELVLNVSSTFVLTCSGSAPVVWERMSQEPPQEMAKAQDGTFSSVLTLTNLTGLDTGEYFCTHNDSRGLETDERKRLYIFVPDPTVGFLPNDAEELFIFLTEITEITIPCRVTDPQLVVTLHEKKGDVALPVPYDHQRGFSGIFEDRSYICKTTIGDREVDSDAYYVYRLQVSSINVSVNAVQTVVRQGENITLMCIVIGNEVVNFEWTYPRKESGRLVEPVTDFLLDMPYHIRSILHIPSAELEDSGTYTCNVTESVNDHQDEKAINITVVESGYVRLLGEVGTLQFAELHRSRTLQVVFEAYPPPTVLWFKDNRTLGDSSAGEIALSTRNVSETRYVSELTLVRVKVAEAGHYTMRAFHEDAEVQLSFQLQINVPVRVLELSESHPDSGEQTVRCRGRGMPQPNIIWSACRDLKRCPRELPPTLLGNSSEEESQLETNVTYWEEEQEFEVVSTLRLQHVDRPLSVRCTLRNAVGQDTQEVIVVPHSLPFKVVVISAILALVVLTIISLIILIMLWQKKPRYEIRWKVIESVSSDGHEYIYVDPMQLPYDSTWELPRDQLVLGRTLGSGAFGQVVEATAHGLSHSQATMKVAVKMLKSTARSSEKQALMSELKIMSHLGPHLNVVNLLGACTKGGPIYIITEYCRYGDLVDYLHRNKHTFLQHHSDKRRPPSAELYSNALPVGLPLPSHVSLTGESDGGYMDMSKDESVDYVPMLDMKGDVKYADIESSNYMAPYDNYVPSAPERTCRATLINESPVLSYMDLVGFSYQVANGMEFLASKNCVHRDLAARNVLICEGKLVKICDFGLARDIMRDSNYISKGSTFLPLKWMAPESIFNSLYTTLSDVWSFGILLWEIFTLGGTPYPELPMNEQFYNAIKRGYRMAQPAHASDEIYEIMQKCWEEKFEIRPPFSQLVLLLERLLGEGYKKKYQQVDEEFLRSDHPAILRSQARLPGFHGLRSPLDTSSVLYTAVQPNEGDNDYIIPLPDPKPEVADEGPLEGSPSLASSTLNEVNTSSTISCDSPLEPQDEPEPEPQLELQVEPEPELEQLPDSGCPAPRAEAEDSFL", "experiment": "PDGFRβ LanthaScreen Assay", "assay_type": "binding", "details": "read-out: PDGFR Lantha IC50"}, "VEGFR2, unphosphorylated": {"molecular_target": "VEGFR2, unphosphorylated (Homo sapiens (Human), UniProt P35968)", "sequence (P35968 20-1356)": "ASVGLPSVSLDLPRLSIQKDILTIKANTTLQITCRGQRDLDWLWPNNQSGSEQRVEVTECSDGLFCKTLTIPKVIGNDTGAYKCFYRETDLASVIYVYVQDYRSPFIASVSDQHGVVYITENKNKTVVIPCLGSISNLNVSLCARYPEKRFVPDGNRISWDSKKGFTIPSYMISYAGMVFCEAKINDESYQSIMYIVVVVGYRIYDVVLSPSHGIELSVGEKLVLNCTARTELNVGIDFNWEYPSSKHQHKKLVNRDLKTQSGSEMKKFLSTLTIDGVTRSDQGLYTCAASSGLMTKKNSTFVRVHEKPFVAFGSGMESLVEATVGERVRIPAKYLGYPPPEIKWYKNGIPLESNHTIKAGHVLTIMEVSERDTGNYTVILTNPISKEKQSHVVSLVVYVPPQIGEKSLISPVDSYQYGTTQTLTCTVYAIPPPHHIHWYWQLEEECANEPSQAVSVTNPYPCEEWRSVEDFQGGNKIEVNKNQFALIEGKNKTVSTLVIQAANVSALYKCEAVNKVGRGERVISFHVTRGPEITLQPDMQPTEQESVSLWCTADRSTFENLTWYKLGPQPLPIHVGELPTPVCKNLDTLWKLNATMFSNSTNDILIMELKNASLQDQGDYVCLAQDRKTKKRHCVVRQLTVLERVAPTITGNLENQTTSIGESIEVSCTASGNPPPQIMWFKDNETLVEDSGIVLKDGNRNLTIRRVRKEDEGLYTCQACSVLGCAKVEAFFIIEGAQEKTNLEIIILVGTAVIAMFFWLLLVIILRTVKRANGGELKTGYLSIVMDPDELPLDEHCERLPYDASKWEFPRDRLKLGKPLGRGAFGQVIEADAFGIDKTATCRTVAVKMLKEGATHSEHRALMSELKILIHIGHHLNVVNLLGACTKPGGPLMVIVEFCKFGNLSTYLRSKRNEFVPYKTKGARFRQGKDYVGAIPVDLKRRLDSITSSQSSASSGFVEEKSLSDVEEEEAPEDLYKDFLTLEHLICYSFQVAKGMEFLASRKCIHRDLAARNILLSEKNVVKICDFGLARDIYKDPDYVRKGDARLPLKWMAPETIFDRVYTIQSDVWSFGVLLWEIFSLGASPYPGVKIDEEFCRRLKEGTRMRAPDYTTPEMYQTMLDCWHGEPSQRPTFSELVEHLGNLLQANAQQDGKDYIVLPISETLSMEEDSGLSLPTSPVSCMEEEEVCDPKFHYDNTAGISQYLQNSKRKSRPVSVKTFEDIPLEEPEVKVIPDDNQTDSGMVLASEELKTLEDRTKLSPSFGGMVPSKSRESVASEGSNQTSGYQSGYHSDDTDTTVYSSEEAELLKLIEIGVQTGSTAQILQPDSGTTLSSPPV", "experiment": "VEGFR ADP GLO Assay", "assay_type": "biochemical"}, "PDGFRβ": {"molecular_target": "PDGFRβ (Rattus norvegicus (Rat), UniProt Q05030)", "sequence (Q05030 32-1097)": "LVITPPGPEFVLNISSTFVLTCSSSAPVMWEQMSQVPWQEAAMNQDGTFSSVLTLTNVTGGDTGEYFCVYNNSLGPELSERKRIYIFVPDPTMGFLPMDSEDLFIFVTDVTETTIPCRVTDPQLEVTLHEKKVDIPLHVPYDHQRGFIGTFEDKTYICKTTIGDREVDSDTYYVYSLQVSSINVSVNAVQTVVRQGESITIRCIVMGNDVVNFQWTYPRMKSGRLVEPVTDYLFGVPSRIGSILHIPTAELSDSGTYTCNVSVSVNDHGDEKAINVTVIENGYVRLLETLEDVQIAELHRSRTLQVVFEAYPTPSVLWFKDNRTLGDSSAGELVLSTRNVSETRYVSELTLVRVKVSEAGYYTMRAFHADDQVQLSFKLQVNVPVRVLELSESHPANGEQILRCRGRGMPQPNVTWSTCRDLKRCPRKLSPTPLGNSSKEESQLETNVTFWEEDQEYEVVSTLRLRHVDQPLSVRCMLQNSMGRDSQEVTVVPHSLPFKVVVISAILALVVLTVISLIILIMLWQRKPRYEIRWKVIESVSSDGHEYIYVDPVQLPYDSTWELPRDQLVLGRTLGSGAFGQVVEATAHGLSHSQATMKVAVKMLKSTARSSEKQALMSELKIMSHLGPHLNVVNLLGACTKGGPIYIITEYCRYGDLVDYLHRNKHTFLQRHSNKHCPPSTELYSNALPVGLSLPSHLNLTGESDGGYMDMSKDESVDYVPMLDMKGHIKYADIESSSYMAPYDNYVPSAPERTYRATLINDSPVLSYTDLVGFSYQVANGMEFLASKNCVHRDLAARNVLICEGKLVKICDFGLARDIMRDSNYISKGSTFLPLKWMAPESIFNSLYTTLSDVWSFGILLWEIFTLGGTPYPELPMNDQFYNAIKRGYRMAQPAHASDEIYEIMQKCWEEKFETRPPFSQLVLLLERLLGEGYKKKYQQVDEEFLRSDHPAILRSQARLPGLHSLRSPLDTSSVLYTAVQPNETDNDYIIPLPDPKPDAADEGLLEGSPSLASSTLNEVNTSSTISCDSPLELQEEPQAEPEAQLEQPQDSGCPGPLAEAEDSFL", "experiment": "PDGFRβ Cellular Assay (PDGFRb P-Y751 HTRF in A10 cells stimulated with PDGF-BB)", "assay_type": "cell-based", "procedure,_shortened": "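Phospho-Y751 PDGFRβ was measured by HTRF in lysates of A10 rat cells. Cells received compound for 3 hours before PDGF-BB stimulation (100 ng/mL working stock).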"}}, "note": "Where two headings read alike, the source gives them in different places."}
{"smiles": "COC/C=C/c1cn2ncc(C(=O)Nc3cc(NC(=O)CN4C[C@H](C)O[C@@H](C)C4)cnc3C)c2s1", "note": "(relative stereo) [Example 367, N-(5-(2-(trans-2,6-dimethylmorpholino)acetamido)-2-methylpyridin-3-yl)-2-((E)-3-methoxyprop-1-en-1-yl)pyrazolo[5,1-b]thiazole-7-carboxamide]", "values": [{"measurement": "IC50", "setting": "[1]", "value": 17.3, "unit": "nM"}, {"measurement": "IC50", "setting": "VEGFR2, unphosphorylated", "value": "> 7500", "unit": "nM"}, {"measurement": "IC50", "setting": "PDGFRβ; PDGFR Cellular IC50", "value": 18.6, "unit": "nM"}]}
{"smiles": "COc1ncccc1-c1cn2ncc(C(=O)Nc3cc(NC(=O)CN4C[C@H](C)O[C@@H](C)C4)cnc3C)c2s1", "note": "(relative stereo) [Example 368, N-(5-(2-(trans-2,6-dimethylmorpholino)acetamido)-2-methylpyridin-3-yl)-2-(2-methoxypyridin-3-yl)pyrazolo[5,1-b]thiazole-7-carboxamide]", "values": [{"measurement": "IC50", "setting": "[1]", "value": 2.4, "unit": "nM"}, {"measurement": "IC50", "setting": "VEGFR2, unphosphorylated", "value": "> 7500", "unit": "nM"}, {"measurement": "IC50", "setting": "PDGFRβ; read-out: PDGFR Cellular IC50", "value": 3.7, "unit": "nM"}]}
{"smiles": "Cc1ncc(NC(=O)CN2C[C@H](C)O[C@@H](C)C2)cc1NC(=O)c1cnn2cc(-c3c[nH]nc3C)sc12", "note": "(relative stereo) [Example 371, N-(5-(2-(trans-2,6-dimethylmorpholino)acetamido)-2-methylpyridin-3-yl)-2-(3-methyl-1H-pyrazol-4-yl)pyrazolo[5,1-b]thiazole-7-carboxamide]", "values": [{"measurement": "IC50", "setting": "[1]", "value": 3, "unit": "nM"}, {"measurement": "IC50", "setting": "VEGFR2, unphosphorylated", "value": "> 2500", "unit": "nM"}, {"measurement": "IC50", "setting": "PDGFRβ; read-out: PDGFR Cellular IC50", "value": 29.3, "unit": "nM"}]}
{"smiles": "Cc1ncc(NC(=O)CN2C[C@H](C)O[C@@H](C)C2)cc1NC(=O)c1cnn2cc(-c3cnc(N)c(F)c3)sc12", "note": "(relative stereo) [Example 372, 2-(6-amino-5-fluoropyridin-3-yl)-N-(5-(2-(trans-2,6-dimethylmorpholino)acetamido)-2-methylpyridin-3-yl)pyrazolo[5,1-b]thiazole-7-carboxamide]", "values": [{"measurement": "IC50", "setting": "[1]", "value": 7.7, "unit": "nM"}, {"measurement": "IC50", "setting": "VEGFR2, unphosphorylated", "value": "> 2500", "unit": "nM"}, {"measurement": "IC50", "setting": "PDGFRβ; read-out: PDGFR Cellular IC50", "value": 21.2, "unit": "nM"}]}
{"smiles": "Cc1ncc(NC(=O)CN2C[C@H](C)O[C@@H](C)C2)cc1NC(=O)c1cnn2cc(-c3c(C)n[nH]c3C)sc12", "note": "(relative stereo) [Example 373, 2-(3,5-dimethyl-1H-pyrazol-4-yl)-N-(5-(2-(trans-2,6-dimethylmorpholino)acetamido)-2-methylpyridin-3-yl)pyrazolo[5,1-b]thiazole-7-carboxamide]", "values": [{"measurement": "IC50", "setting": "[1]", "value": 7, "unit": "nM"}, {"measurement": "IC50", "setting": "VEGFR2, unphosphorylated", "value": "> 7500", "unit": "nM"}, {"measurement": "IC50", "setting": "PDGFRβ; read-out: PDGFR Cellular IC50", "value": 56.7, "unit": "nM"}]}
{"smiles": "Cc1ncc(NC(=O)CN2C[C@H](C)O[C@@H](C)C2)cc1NC(=O)c1cnn2cc(-c3cc[nH]n3)sc12", "note": "(relative stereo) [Example 374, N-(5-(2-(trans-2,6-dimethylmorpholino)acetamido)-2-methylpyridin-3-yl)-2-(1H-pyrazol-3-yl)pyrazolo[5,1-b]thiazole-7-carboxamide]", "values": [{"measurement": "IC50", "setting": "[1]", "value": 4, "unit": "nM"}, {"measurement": "IC50", "setting": "VEGFR2, unphosphorylated", "value": "> 7500", "unit": "nM"}, {"measurement": "IC50", "setting": "PDGFRβ; read-out: PDGFR Cellular IC50", "value": 41.3, "unit": "nM"}]}
{"smiles": "Cc1ncc(NC(=O)CN2C[C@H](C)O[C@@H](C)C2)cc1NC(=O)c1cnn2cc(-c3cnn4c3OCCC4)sc12", "note": "(relative stereo) [Example 375, 2-(6,7-dihydro-5H-pyrazolo[5,1-b][1,3]oxazin-3-yl)-N-(5-(2-(trans-2,6-dimethylmorpholino)acetamido)-2-methylpyridin-3-yl)pyrazolo[5,1-b]thiazole-7-carboxamide]", "values": [{"measurement": "IC50", "setting": "[1]", "value": 4.5, "unit": "nM"}, {"measurement": "IC50", "setting": "VEGFR2, unphosphorylated", "value": "> 833", "unit": "nM"}, {"measurement": "IC50", "setting": "PDGFRβ; read-out: PDGFR Cellular IC50", "value": 10.2, "unit": "nM"}]}
{"smiles": "Cc1ncc(NC(=O)CN2C[C@@H](CO)O[C@@H](C)C2)cc1NC(=O)c1cnn2cc(-c3cnn(C)c3)sc12", "note": "(relative stereo) [Example 378, N-(5-(2-(cis-2-(hydroxymethyl)-6-methylmorpholino)acetamido)-2-methylpyridin-3-yl)-2-(1-methyl-1H-pyrazol-4-yl)pyrazolo[5,1-b]thiazole-7-carboxamide]", "values": [{"measurement": "IC50", "setting": "[1]", "value": 10.2, "unit": "nM"}, {"measurement": "IC50", "setting": "VEGFR2, unphosphorylated", "value": "> 2500", "unit": "nM"}, {"measurement": "IC50", "setting": "PDGFRβ; read-out: PDGFR Cellular IC50", "value": 304, "unit": "nM"}]}
{"smiles": "Cc1ncc(NC(=O)CN2C[C@H](C)O[C@@H](C)C2)cc1NC(=O)c1cnn2cc(-c3cnn(C4CC4)c3)sc12", "note": "(relative stereo) [Example 382, 2-(1-cyclopropyl-1H-pyrazol-4-yl)-N-(5-(2-(trans-2,6-dimethylmorpholino)acetamido)-2-methylpyridin-3-yl)pyrazolo[5,1-b]thiazole-7-carboxamide]", "values": [{"measurement": "IC50", "setting": "[1]", "value": 5.3, "unit": "nM"}, {"measurement": "IC50", "setting": "VEGFR2, unphosphorylated", "value": "> 2500", "unit": "nM"}, {"measurement": "IC50", "setting": "PDGFRβ; read-out: PDGFR Cellular IC50", "value": 7.6, "unit": "nM"}]}
{"smiles": "COc1ncccc1-c1cn2ncc(C(=O)Nc3cc(NC(=O)CN4C[C@H](C)O[C@@H](C)C4)cnc3C)c2s1", "note": "(relative stereo) [Example 384, N-(5-(2-(trans-2,6-dimethylmorpholino)acetamido)-2-methylpyridin-3-yl)-2-(2-methoxypyridin-3-yl)pyrazolo[5,1-b]thiazole-7-carboxamide]", "values": [{"measurement": "IC50", "setting": "[1]", "value": 2.3, "unit": "nM"}, {"measurement": "IC50", "setting": "VEGFR2, unphosphorylated", "value": "> 833", "unit": "nM"}, {"measurement": "IC50", "setting": "PDGFRβ; read-out: PDGFR Cellular IC50", "value": 4.3, "unit": "nM"}]}
{"smiles": "COc1ccncc1-c1cn2ncc(C(=O)Nc3cc(NC(=O)CN4C[C@H](C)O[C@@H](C)C4)cnc3C)c2s1", "note": "(relative stereo) [Example 385, N-(5-(2-(trans-2,6-dimethylmorpholino)acetamido)-2-methylpyridin-3-yl)-2-(4-methoxypyridin-3-yl)pyrazolo[5,1-b]thiazole-7-carboxamide]", "values": [{"measurement": "IC50", "setting": "[1]", "value": 4.9, "unit": "nM"}, {"measurement": "IC50", "setting": "VEGFR2, unphosphorylated", "value": "> 833", "unit": "nM"}, {"measurement": "IC50", "setting": "PDGFRβ; read-out: PDGFR Cellular IC50", "value": 9.5, "unit": "nM"}]}
{"smiles": "COc1cccc(-c2cn3ncc(C(=O)Nc4cc(NC(=O)CN5C[C@H](C)O[C@@H](C)C5)cnc4C)c3s2)n1", "note": "(relative stereo) [Example 386, N-(5-(2-(trans-2,6-dimethylmorpholino)acetamido)-2-methylpyridin-3-yl)-2-(6-methoxypyridin-2-yl)pyrazolo[5,1-b]thiazole-7-carboxamide]", "values": [{"measurement": "IC50", "setting": "[1]", "value": 2.5, "unit": "nM"}, {"measurement": "IC50", "setting": "VEGFR2, unphosphorylated", "value": "> 833", "unit": "nM"}, {"measurement": "IC50", "setting": "PDGFRβ; read-out: PDGFR Cellular IC50", "value": 3.8, "unit": "nM"}]}
{"smiles": "Cc1ncc(NC(=O)CN2CCC[C@H]2C)cc1NC(=O)c1cnn2cc(-c3cnn(C)c3)sc12", "note": "[Example 26, (R)-2-(1-methyl-1H-pyrazol-4-yl)-N-(2-methyl-5-(2-(2-methyl-pyrrolidin-1-yl)acetamido)pyridin-3-yl)pyrazolo[5,1-b]thiazole-7-carboxamide]", "values": [{"measurement": "IC50", "setting": "[1]", "value": 11.7, "unit": "nM"}, {"measurement": "IC50", "setting": "VEGFR2, unphosphorylated", "value": "> 7500", "unit": "nM"}, {"measurement": "IC50", "setting": "PDGFRβ; read-out: PDGFR Cellular IC50", "value": 5.9, "unit": "nM"}]}
{"smiles": "Cc1ncc(NC(=O)CN2CCC[C@@H]2C)cc1NC(=O)c1cnn2cc(-c3cnn(C)c3)sc12", "note": "[Example 27, (S)-2-(1-methyl-1H-pyrazol-4-yl)-N-(2-methyl-5-(2-(2-methyl-pyrrolidin-1-yl)acetamido)pyridin-3-yl)pyrazolo[5,1-b]thiazole-7-carboxamide]", "values": [{"measurement": "IC50", "setting": "[1]", "value": 16.2, "unit": "nM"}, {"measurement": "IC50", "setting": "VEGFR2, unphosphorylated", "value": "> 7500", "unit": "nM"}, {"measurement": "IC50", "setting": "PDGFRβ; read-out: PDGFR Cellular IC50", "value": 6.3, "unit": "nM"}]}
{"smiles": "Cc1ncc(NC(=O)CN2CCC(C)(C)C2)cc1NC(=O)c1cnn2cc(-c3cnn(CCO)c3)sc12", "note": "[Example 28, N-(5-(2-(3,3-dimethylpyrrolidin-1-yl)acetamido)-2-methylpyridin-3-yl)-2-(1-(2-hydroxyethyl)-1H-pyrazol-4-yl)pyrazolo[5,1-b]thiazole-7-carboxamide]", "values": [{"measurement": "IC50", "setting": "[1]", "value": 4.2, "unit": "nM"}, {"measurement": "IC50", "setting": "VEGFR2, unphosphorylated", "value": "> 7500", "unit": "nM"}, {"measurement": "IC50", "setting": "PDGFRβ; read-out: PDGFR Cellular IC50", "value": 13.6, "unit": "nM"}]}
{"smiles": "Cc1ncc(NC(=O)CN2CCCC23CCC3)cc1NC(=O)c1cnn2cc(-c3cnn(CCO)c3)sc12", "note": "[Example 29, N-(5-(2-(5-azaspiro[3.4]octan-5-yl)acetamido)-2-methylpyridin-3-yl)-2-(1-(2-hydroxyethyl)-1H-pyrazol-4-yl)pyrazolo[5,1-b]thiazole-7-carboxamide]", "values": [{"measurement": "IC50", "setting": "[1]", "value": 3.4, "unit": "nM"}, {"measurement": "IC50", "setting": "VEGFR2, unphosphorylated", "value": "> 7500", "unit": "nM"}, {"measurement": "IC50", "setting": "PDGFRβ; read-out: PDGFR Cellular IC50", "value": 5, "unit": "nM"}]}
{"smiles": "Cc1ncc(NC(=O)CN2CCC3(CCC3)C2)cc1NC(=O)c1cnn2cc(-c3cnn(CCO)c3)sc12", "note": "[Example 30, N-(5-(2-(6-azaspiro[3.4]octan-6-yl)acetamido)-2-methylpyridin-3-yl)-2-(1-(2-hydroxyethyl)-1H-pyrazol-4-yl)pyrazolo[5,1-b]thiazole-7-carboxamide]", "values": [{"measurement": "IC50", "setting": "[1]", "value": 3.3, "unit": "nM"}, {"measurement": "IC50", "setting": "VEGFR2, unphosphorylated", "value": "> 7500", "unit": "nM"}, {"measurement": "IC50", "setting": "PDGFRβ; read-out: PDGFR Cellular IC50", "value": 16.5, "unit": "nM"}]}
